The record followed here is patent publication US20220023386A1, “METHOD FOR THE TREATMENT OR PREVENTION OF OSTEOARTHRITIS” (Chondropeptix B.V., priority 2016, published 2022).

In assay [1] the test system is OA articular chondrocytes. Briefly: Expression of OA chondrocyte phenotype marker genes by RT-qPCR after peptide exposure. It is filed as cell-based, human. Details: key to ADAMTS5 expression: [+] denotes a significantly increased expression of chondrogenic marker BAPX1/NKX3.2 or a decreased expression of OA chondrocyte phenotypic markers ALP, MMP13, ADAMTS5, COX2, COL10A and RUNX2 in OA articular chondrocytes, in comparison to untreated OA articular chondrocytes.; [−] denotes the absence of a significant effort or a significantly decreased expression of chondrogenic marker BAPX1/NKX3.2 or an increased expression of OA chondrocyte phenotypic markers ALP, MMP13, ADAMTS5, COX2, COL10A and RUNX2 in OA articular chondrocytes, in comparison to untreated OA articular chondrocytes. To be noted: Table 3, N- and C-terminally truncated peptides; vs untreated OA articular chondrocytes. (In qPCR the cycle at which signal appears reflects the starting amount.)

The subject of assay [2] is OA articular chondrocytes. The description is as above. It is filed as cell-based, human. Details: key: [+] denotes a significantly increased expression of chondrogenic marker BAPX1/NKX3.2 or a decreased expression of OA chondrocyte phenotypic markers ALP, MMP13, ADAMTS5, COX2, COL10A and RUNX2 in OA articular chondrocytes, in comparison to untreated OA articular chondrocytes.; [−] denotes the absence of a significant effort or a significantly decreased expression of chondrogenic marker BAPX1/NKX3.2 or an increased expression of OA chondrocyte phenotypic markers ALP, MMP13, ADAMTS5, COX2, COL10A and RUNX2 in OA articular chondrocytes, in comparison to untreated OA articular chondrocytes. The settings on record: Table 3, N- and C-terminally truncated peptides; vs untreated OA articular chondrocytes.

“17 (APEGYAAYYSEGESAFPLNS; homo sapiens) [compound 17]”: the ADAMTS5 expression result in assay [1] is reported as “+”. Besides, in assay [2], the ALP expression entry is recorded as “+”, the BAPX1/NKX3.2 expression entry is recorded as “+”, the COL10A expression result is on record as “+” and the COX-2 expression entry is on record as “+”. For the same substance, in assay [2], the MMP13 expression result is recorded as “−” and the RUNX2 expression entry is “+”.

With “18 (PEGYAAYYSEGESAFPLNS; homo sapiens) [compound 18]”, the ADAMTS5 expression entry in assay [1] was “+”. In assay [2], the ALP expression result was “+”, the BAPX1/NKX3.2 expression entry is “+”, the COL10A expression result is recorded as “+” and the COX-2 expression entry is recorded as “+”. Also, in assay [2], the MMP13 expression result is on record as “−” and the RUNX2 expression entry is given as “+”.

In the case of “19 (EGYAAYYSEGESAFPLNS; homo sapiens) [compound 19]”, the ADAMTS5 expression entry in assay [1] is recorded as “+”. Further, in assay [2], the ALP expression result is recorded as “+”, the BAPX1/NKX3.2 expression entry was “+”, the COL10A expression entry is reported as “+” and the COX-2 expression entry is reported as “+”. Moreover, in assay [2], the MMP13 expression result was “+” and the RUNX2 expression entry was “+”.

As to “20 (GYAAYYSEGESAFPLNS; homo sapiens) [compound 20]”, the ADAMTS5 expression result in assay [1] is listed as “+”. In assay [2], the ALP expression result is “+”, the BAPX1/NKX3.2 expression result is “+”, the COL10A expression result is recorded as “+” and the COX-2 expression result is reported as “+”. Besides, in assay [2], the MMP13 expression result is “+” and the RUNX2 expression entry is on record as “+”.

As to “21 (YAAYYSEGESAFPLNS; homo sapiens) [compound 21]”, in assay [1], the ADAMTS5 expression entry was “+”. In assay [2], the ALP expression result was “+”, the BAPX1/NKX3.2 expression entry was “+”, the COL10A expression entry is reported as “+” and the COX-2 expression result is recorded as “+”. Also, in assay [2], the MMP13 expression result is listed as “+” and the RUNX2 expression entry is reported as “+”.

Regarding “22 (AAYYSEGESAFPLNS; homo sapiens) [compound 22]”, in assay [1], the ADAMTS5 expression result was “+”. Moreover, in assay [2], the ALP expression entry is “+”, the BAPX1/NKX3.2 expression entry is “+”, the COL10A expression result is “+” and the COX-2 expression result is “+”. In assay [2], the MMP13 expression entry was “+” and the RUNX2 expression result is “+”.

For “23 (AYYSEGESAFPLNS; homo sapiens) [compound 23]”, in assay [1], the ADAMTS5 expression entry is on record as “+”. Also, in assay [2], the ALP expression result was “+”, the BAPX1/NKX3.2 expression entry is listed as “+”, the COL10A expression result is listed as “+” and the COX-2 expression entry is reported as “+”. Besides, in assay [2], the MMP13 expression entry is “+” and the RUNX2 expression entry was “+”.

In the case of “24 (YYSEGESAFPLNS; homo sapiens) [compound 24]”, in assay [1], the ADAMTS5 expression result is “+”. Moreover, in assay [2], the ALP expression entry is “+”, the BAPX1/NKX3.2 expression result is given as “+”, the COL10A expression result is reported as “+” and the COX-2 expression result is “+”. In addition, in assay [2], the MMP13 expression result is listed as “+” and the RUNX2 expression entry is given as “+”.

Turning to “25 (YSEGESAFPLNS; homo sapiens) [compound 25]”, the ADAMTS5 expression result in assay [1] was “+”. For the same substance, in assay [2], the ALP expression result is “+”, the BAPX1/NKX3.2 expression entry is “+”, the COL10A expression entry is reported as “+” and the COX-2 expression result is on record as “+”. In assay [2], the MMP13 expression entry is on record as “+” and the RUNX2 expression result is “+”.

In the case of “26 (YSEGESAFPLNSY; homo sapiens) [compound 26]”, the ADAMTS5 expression entry in assay [1] is listed as “+”. For the same substance, in assay [2], the ALP expression result is “+”, the BAPX1/NKX3.2 expression entry is “+”, the COL10A expression entry was “+” and the COX-2 expression result is on record as “+”. In assay [2], the MMP13 expression result is recorded as “+” and the RUNX2 expression entry is listed as “+”.

For “27 (YSEGESAFPLNSYM; homo sapiens) [compound 27]”, the ADAMTS5 expression result in assay [1] was “+”. In assay [2], the ALP expression entry is reported as “+”, the BAPX1/NKX3.2 expression result is recorded as “+”, the COL10A expression entry is given as “+” and the COX-2 expression result is on record as “+”. Besides, in assay [2], the MMP13 expression entry was “+” and the RUNX2 expression result was “+”.

For “28 (YSEGESAFPLNSYMN; homo sapiens) [compound 28]”, the ADAMTS5 expression entry in assay [1] is listed as “+”. In addition, in assay [2], the ALP expression entry is on record as “+”, the BAPX1/NKX3.2 expression result was “+”, the COL10A expression result was “+” and the COX-2 expression result is reported as “+”. Further, in assay [2], the MMP13 expression entry is given as “+” and the RUNX2 expression result is recorded as “+”.

“29 (YSEGESAFPLNSYMNA; homo sapiens) [compound 29]”: the ADAMTS5 expression entry in assay [1] is “+”. In addition, in assay [2], the ALP expression result was “+”, the BAPX1/NKX3.2 expression entry is on record as “+”, the COL10A expression result was “+” and the COX-2 expression entry was “+”. In addition, in assay [2], the MMP13 expression result is “+” and the RUNX2 expression result is given as “+”.

On to “30 (YSEGESAFPLNSYMNAT; homo sapiens) [compound 30]”, for which, in assay [1], the ADAMTS5 expression result is “+”. Moreover, in assay [2], the ALP expression entry is on record as “+”, the BAPX1/NKX3.2 expression result is listed as “+”, the COL10A expression entry was “+” and the COX-2 expression entry is “+”. Further, in assay [2], the MMP13 expression entry was “+” and the RUNX2 expression result is on record as “+”.

Take “31 (YSEGESAFPLNSYMNATN; homo sapiens) [compound 31]”: in assay [1], the ADAMTS5 expression result was “+”. In addition, in assay [2], the ALP expression result was “+”, the BAPX1/NKX3.2 expression entry is on record as “+”, the COL10A expression result was “+” and the COX-2 expression entry is listed as “+”. For the same substance, in assay [2], the MMP13 expression entry is reported as “+” and the RUNX2 expression result is given as “+”.

Turning to “32 (YSEGESAFPLNSYMNATNH; homo sapiens) [compound 32]”, in assay [1], the ADAMTS5 expression result is recorded as “+”. In assay [2], the ALP expression result was “+”, the BAPX1/NKX3.2 expression entry is listed as “+”, the COL10A expression result is “+” and the COX-2 expression result is reported as “+”. Further, in assay [2], the MMP13 expression entry is given as “+” and the RUNX2 expression result is reported as “+”.

With “33 (YSEGESAFPLNSYMNATNHA; homo sapiens) [compound 33]”, the ADAMTS5 expression entry in assay [1] is “+”. For the same substance, in assay [2], the ALP expression entry is given as “+”, the BAPX1/NKX3.2 expression result is “+”, the COL10A expression result is recorded as “+” and the COX-2 expression result is “+”. Also, in assay [2], the MMP13 expression result is reported as “+” and the RUNX2 expression result is listed as “+”.

Take “34 (APEGYAAYYSEGESAFPLNSYMNATNHA; homo sapiens) [compound 34]”: the ADAMTS5 expression result in assay [1] is “+”. For the same substance, in assay [2], the ALP expression entry is given as “+”, the BAPX1/NKX3.2 expression result is “+”, the COL10A expression entry is on record as “+” and the COX-2 expression result was “+”. Also, in assay [2], the MMP13 expression result is given as “+” and the RUNX2 expression result is “+”.

Regarding “35 (PEGYAAYYSEGESAFPLNSYMNATNHA; homo sapiens) [compound 35]”, in assay [1], the ADAMTS5 expression result is “+”. Further, in assay [2], the ALP expression entry is recorded as “+”, the BAPX1/NKX3.2 expression result is “+”, the COL10A expression entry is given as “+” and the COX-2 expression entry was “+”. In assay [2], the MMP13 expression entry is on record as “+” and the RUNX2 expression result is “+”.

For the substance “36 (EGYAAYYSEGESAFPLNSYMNATNHA; homo sapiens) [compound 36]”, the ADAMTS5 expression entry in assay [1] was “+”. In assay [2], the ALP expression result is given as “+”, the BAPX1/NKX3.2 expression result is “+”, the COL10A expression result was “+” and the COX-2 expression result was “+”. Besides, in assay [2], the MMP13 expression result is on record as “+” and the RUNX2 expression result is reported as “+”.
